Where “and” joins values, the source holds several entries; their conditions need not be identical. Equal entries are not always repeated.
How the values were obtained:
[1] = system: MC38 colon tumors; experiment: Tumor-infiltrating lymphocytes in MC38 tumors; type: in vivo, mouse; set-up: CD4 EM, individual mice / CD8 EM, individual mice / GRZMB, individual mice / B cells, individual mice / NK cells, individual mice / Tregs, individual mice / MDSCs, individual mice: unit not given here
Description: (§1) Tumor-bearing mice were sacrificed and tumors were excised and digested at 37 °C for 30 min using a cocktail of 1 mg/ml collagenase type IV (Worthington Biochemicals) and 0.02 mg/ml DNase I (Sigma-Aldrich) in DMEM supplemented with 2% (v/v) FBS. Cells were passed through a 70 μm cell strainer (BD Biosciences) twice and processed for flow cytometry. For assessing T cell activation, cells were surface stained with fluorophore-conjugated antibodies to CD62L, CD44, PD-1, and TIM-3. For the assessment of NK cells, B cells, myeloid-derived suppressor cells (MDSCs), dendritic cells (DCs), and tumor-associated macrophages, cells were surface stained with fluorophore-conjugated antibodies to NK1.1, TCRβ, CD19, CD11b, CD11c, F4/80, Ly6C and Ly6G. For the detection of intracellular cytokines TNF and IFNγ, T cells were stimulated with PMA (20 ng/ml; Sigma-Aldrich) and ionomycin (1 μg/ml; Sigma-Aldrich) in the presence of GolgiPlug™ and GolgiStop™ (BD Biosciences) for 4 h at 37 °C in complete T cell medium. For the intracellular detection of granzyme B, cells were processed untreated without the addition of BD GolgiPlug™ and BD GolgiStop™.

[2] = system: OT-I CD8+ T cells; experiment: T cell proliferation (CTV dilution); type: cell-based, mouse; set-up: CTV, single replicates / CTV, mean of differences (D - C): unit not given here; conditions: for CTV, single replicates: N4 0.5 nM, 1 μM, 3 days, Fig. 2C raw data
Description: For analyzing cellular proliferation in vitro, single-cell suspensions from lymph nodes of wild type (OT-I;Ptpn2^fl/fl) or PTPN2-deficient (OT-I;Lck-Cre;Ptpn2^fl/fl) mice were stained with 2 μM CellTrace^TM Violet (CTV; Molecular Probes, Thermo Fisher Scientific) in PBS supplemented with 0.1% (v/v) FBS for 20 min at 37 °C. […] On day 3, OT-I cells were harvested and CTV dilution was monitored by flow cytometry. For cell number quantification, known numbers of Flow-Count Fluorospheres (Beckman Coulter) were added to samples before analysis.

[3] = system: p-STAT-1 and CD3 in AT3 tumors; experiment: Immunohistochemistry for p-STAT-1 (Y701) and CD3 in AT3 tumors; type: in vivo, mouse; conditions: 10 mg/kg i.v.
Description: For the immunohistochemistry analysis of mammary tumor samples, samples were dissected and fixed in 10% formalin. After fixation, the tissues were embedded in paraffin and sectioned onto microscopic glass slides at 4 μm thickness per section. After deparaffinization and rehydration, the slides were subjected to antigen retrieval in Tris/EDTA buffer (pH 8.0) at 120 °C for 10 min and then cooled down to room temperature. The slides were blocked with 5% (v/v) normal goat serum (NGS) containing 0.1% (v/v) TritonX-100 in PBS for 1 h at room temperature and then incubated with primary antibody p-STAT-1 (Tyr701) (1:500; Cell Signaling Technology), or CD3ε (1:1000; Dako) at room temperature for 1 h. Slides were then washed with PBS containing 0.05% (w/v) Tween-20 and visualized using a rabbit IgG VECTORSTAIN ABC Elite and DAB (3,3′‐diaminobenzidine) Peroxidase Substrate Kit (Vector Laboratories, UK) and counterstained with haematoxylin. Slides were imaged on an Olympus CX43 microscope (Olympus, Tokyo, Japan).

[4] = system: AT3 mammary tumors; experiment: Tumor-infiltrating lymphocytes in AT3 tumors; type: in vivo, mouse; set-up: CD4 EM, individual mice / CD8 EM, individual mice / GRZMB, individual mice / B cells, individual mice / NK cells, individual mice / Tregs, individual mice / MDSCs, individual mice: unit not given here
Description: as §1

[5] = system: AT3-OVA mammary tumors; experiment: Tumor-infiltrating lymphocytes in AT3-OVA tumors (flow cytometry); type: in vivo, mouse; set-up: GRZMB, single mice / GRZMB, individual mice: unit not given here
Description: Single-cell suspensions from spleens and lymph nodes were obtained as described previously. For the detection of intracellular cytokines and granzyme B, T cells were fixed and permeabilized with the BD Cytofix/Cytoperm kit according to the manufacturer’s instructions. Briefly, T cells were first surface stained with fluorophore-conjugated antibodies and then fixed followed by permeabilization on ice for 20 min. Fixed and permeabilized cells were stained for IFN-γ, TNF, and granzyme B for 45 min at room temperature. For the detection of intracellular FoxP3 the Foxp3/Transcription Factor Staining Buffer Set (eBioscience) was used according to the manufacturer’s instructions. Briefly, cells were fixed and permeabilized for 1 h on ice followed by intracellular staining at room temperature for 45 min. For the detection of serum cytokines, the BD CBA Mouse Inflammation Kit™ was used according to the manufacturers’ instructions.
Cells (1 × 10^6/10 µl) were stained with the specified antibodies on ice for 30 min in D-PBS supplemented with 2% FBS in the dark and analyzed using a Fortessa or Symphony A3 (BD Biosciences). Data was acquired using BD FACS DIVA Software v8.0.1 and analyzed using FlowJo10 (Tree Star Inc.) software. Lymphocytes were gated for eYFP^+ cells to discriminate between PTPN2 sufficient and PTPN2 negative cells after poly(I:C)-induced PTPN2-deletion in Mx1-Cre;Ptpn2^fl/fl mice. For cell quantification, known numbers of Flow-Count Fluorospheres (Beckman Coulter) were added to samples before analysis. Dead cells were excluded with propidium iodide (1 μg/ml; Sigma-Aldrich). Paraformaldehyde fixed dead cells were excluded with the LIVE/DEAD™ Fixable Near-IR Dead Cell Stain Kit (Thermo Fisher Scientific).
as §1

[6] = MC38 tumours, Figure 4B, listed as CMP-182
[7] = MC38 tumours, Figure 4C, listed as CMP-182
[8] = AT-3 tumours, Figure 4E, listed as CMP-182
[9] = AT-3 tumours, Figure 4F, listed as CMP-182
[10] = C57BL/6, CMP-182 10 mg, n=8, Figure 5C
[11] = C57BL/6, CMP-182 10 mg, n=8, Figure 5D, in % (unit assumed)
[12] = C57BL/6, CMP-182 10 mg, n=8, Figure 5E
[13] = tumor-infiltrating CD8+ T cells, 10 mg/kg i.v., Fig. 3D raw data, listed as CMP-182, 10 mg/kg

CC(C)(O)CCOc1ccc2cc(O)c(N3CC(=O)NS3(=O)=O)c(F)c2c1 [Compound 182, 5-(1-Fluoro-3-hydroxy-7-(3-hydroxy-3-methylbutoxy)naphthalen-2-yl)−1,2,5-thiadiazolidin-3-one 1,1-dioxide]
TILs in MC38 tumors ([1]; 10 mg/kg i.v.): increased TILs
CD4 EM, individual mice [1, 6]: 7887.52 and 30840.7 and 10292.6 and 20601 and 9909.06
CD8 EM, individual mice [1, 6]: 15044.4 and 39708.3 and 17222.4 and 39521.3 and 13554.1
GRZMB, individual mice [1, 6]: 88.5 and 78.2 and 82.1 and 82.7 and 77.1
PD-1 TIM-3, individual mice [1, 6]: 71 and 72.3 and 61.5 and 79.9 and 67.1
B cells, individual mice [1, 7]: 1614.8 and 2825.59 and 875.433 and 4615.54 and 1539.85
MDSCs, individual mice [1, 7]: 35014.8 and 125819 and 42394.5 and 66581.6 and 40317.8
NK cells, individual mice [1, 7]: 12195.1 and 31635.4 and 14041.5 and 15109.2 and 9658.51
Tregs, individual mice [1, 7]: 1910.56 and 8524.67 and 3417.74 and 9313.01 and 2270.7
OT-I CD8+ T cell proliferation/expansion (CTV dilution) [2]: marked increases
CTV, mean of differences (D - C) ([2]; 2KI vs. 2K, day 3, 4 pairs, Fig. 2C): 23.93
CTV, single replicates ([2]; Lck-Cre;Ptpn2fl/fl (2K) OT-I cells, listed as 2KI): 82.8 and 89.7 and 89.6 and 74.7
CTV, mean of differences (B - A) ([2]; WTI vs. WT, day 3, 4 pairs, Fig. 2C): 27.74
CTV, single replicates ([2]; wild type OT-I cells, listed as WTI): 38.7 and 58 and 84.3 and 62.7
tumor p-STAT-1 and CD3+ T cell infiltrates in AT3 tumors of Lck-Cre;Ptpn2fl/fl mice [3]: enhanced promotion
TILs in AT3 tumors ([4]; 10 mg/kg i.v.): increased TILs
CD4 EM, individual mice [4, 8]: 3726.1 and 1503.32 and 2365.26 and 3607.46 and 1559.09
CD8 EM, individual mice [4, 8]: 36747.8 and 11580.8 and 23763.5 and 22145.6 and 15367.2
GRZMB, individual mice [4, 8]: 38 and 29.8 and 32 and 36.3 and 27.7
PD-1 TIM-3, individual mice [4, 8]: 17.7 and 30.7 and 29.6 and 26.7 and 38
B cells, individual mice [4, 9]: 10773 and 2554.29 and 3750.15 and 13582.9 and 3202.26
MDSCs, individual mice [4, 9]: 17269.7 and 11457.4 and 14297.5 and 10691.6 and 5468.87
NK cells, individual mice [4, 9]: 10197.4 and 4505.05 and 4177.56 and 6667.39 and 3703.02
Tregs, individual mice [4, 9]: 857.48 and 533.579 and 888.636 and 1675.89 and 531.261
TILs in AT3-OVA tumors ([5]; 10 mg/kg i.v.): increased TILs
accumulation of NK cells and B cells in AT3-OVA tumors ([5]; 10 mg/kg i.v.): increased the accumulation
accumulation of Tregs and MDSCs in AT3-OVA tumors ([5]; 10 mg/kg i.v.): promoted the accumulation
MDSCs, individual mice ([5]; C57BL/6, CMP-182 10 mg, n=7, Figure 5E): 48747.9 and 7096.22 and 17089.1 and 45092.3 and 47664.4 and 17646.1 and 31607.3
CD4 EM, individual mice [5, 10]: 134557 and 47922.8 and 133424 and 44428.9 and 44587.5 and 55436.2 and 44822.8 and 60817.2
CD8 EM, individual mice [5, 10]: 845401 and 186403 and 749030 and 169324 and 169003 and 192622 and 192657 and 178436
GRZMB, individual mice ([5]; C57BL/6, CMP-182 10 mg, n=8, Figure 5D): 25.6 and 28.7 and 25.8 and 29.2 and 51.4 and 33.2 and 36 and 28.4
IFNg TNF, individual mice [5, 11]: 24.8 and 30.6 and 32 and 36.2 and 36.6 and 36.4 and 24 and 30.7
PD-1 TIM-3, individual mice [5, 11]: 77.9 and 62.8 and 78.4 and 65.6 and 64.1 and 65.4 and 72.7 and 54.7
B cells, individual mice [5, 12]: 170944 and 179918 and 255526 and 193357 and 175857 and 145133 and 135399 and 202633
NK cells, individual mice [5, 12]: 58558.9 and 29752.3 and 40599.7 and 35764.2 and 59533.6 and 52754.4 and 30362.6 and 33110.9
Tregs, individual mice [5, 12]: 74115.4 and 20349.3 and 83872.7 and 21555.9 and 26849.8 and 29117.6 and 19831.6 and 35834.4
CD4 CM TILS (median) ([5]; Figure 3B, column B, n=8): 11958, n=8
CD4 EM TILS (median) ([5]; Figure 3B, column B, n=8): 57270, n=8
CD8 CM TILS (median) ([5]; Figure 3B, column B, n=8): 16228, n=8
CD8 EM TILS (median) ([5]; Figure 3B, column B, n=8): 275442, n=8
B cells TILS (median) ([5]; Figure 3C, column B, n=8): 364105, n=8
MDSCs TILS (median) ([5]; Figure 3C, column B, n=8): 8604, n=8
Nk cells TILS (median) ([5]; Figure 3C, column B, n=8): 52917, n=8
Tregs TILS (median) ([5]; Figure 3C, column B, n=8): 35282, n=8
GRZB TILS (median) ([5]; Figure 3D, column B, n=8): 35.20, n=8
IFNg TNF TILS (median) ([5]; Figure 3D, column B, n=8): 31.60, n=8
PD-1 Lag-3 TILS (median) ([5]; Figure 3D, column B, n=8): 35.10, n=8
PD-1 TIM-3 TILS (median) ([5]; Figure 3D, column B, n=8): 50.75, n=8
GRZMB, single mice [5, 13]: 38.7 and 39 and 35.1 and 25.9 and 27.7 and 35.3 and 28.6 and 36.2
PD-1 LAG-3, single mice [5, 13]: 39.6 and 36.2 and 34 and 27 and 25.2 and 33.5 and 41.6
PD-1 TIM-3, single mice ([5]; tumor-infiltrating CD8+ T cells, 10 mg/kg i.v., Fig. 3D raw data, listed as CMP-182, 10 mg/kg, in % (unit assumed)): 64.6 and 50.1 and 56.3 and 51.4 and 49.7 and 42.6 and 48.5 and 63
